Measured values reported in ChEMBL document CHEMBL1155059, “Synthesis and biological evaluation of trisubstituted imidazole derivatives as inhibitors of p38alpha mitogen-activated protein kinase” (Bioorg Med Chem Lett, 2008).

Columns and labels:
[1] = molecular target: Mitogen-activated protein kinase 14 (Homo sapiens, UniProt Q16539); assay: Inhibition of human recombinant p38alpha MAPK expressed in Escherichia coli by radioisotopic protein kinase assay
TGF-beta receptor type-1 = molecular target: T1, TGF-beta receptor type-1 (Homo sapiens, UniProt P36897); assay: Inhibition of GST fused human recombinant ALK5 expressed in Sf9 cells by radioisotopic protein kinase assay
T1 sequence (P36897 whole entry): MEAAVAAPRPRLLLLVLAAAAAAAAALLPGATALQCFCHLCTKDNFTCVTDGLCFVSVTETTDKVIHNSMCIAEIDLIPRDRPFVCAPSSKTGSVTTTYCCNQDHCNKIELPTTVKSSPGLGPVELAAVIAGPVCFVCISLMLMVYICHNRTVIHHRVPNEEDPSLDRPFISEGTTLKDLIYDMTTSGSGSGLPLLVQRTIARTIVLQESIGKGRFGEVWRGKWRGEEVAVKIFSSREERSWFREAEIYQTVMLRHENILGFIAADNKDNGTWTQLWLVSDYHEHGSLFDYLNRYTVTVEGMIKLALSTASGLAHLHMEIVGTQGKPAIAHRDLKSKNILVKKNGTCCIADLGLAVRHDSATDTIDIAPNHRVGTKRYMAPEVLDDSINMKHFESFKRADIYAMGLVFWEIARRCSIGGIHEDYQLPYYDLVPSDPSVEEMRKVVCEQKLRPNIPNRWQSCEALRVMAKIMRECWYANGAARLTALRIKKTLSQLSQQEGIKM

Chain of Mitogen-activated protein kinase 14 (Q16539 whole entry, the tested form may be a part): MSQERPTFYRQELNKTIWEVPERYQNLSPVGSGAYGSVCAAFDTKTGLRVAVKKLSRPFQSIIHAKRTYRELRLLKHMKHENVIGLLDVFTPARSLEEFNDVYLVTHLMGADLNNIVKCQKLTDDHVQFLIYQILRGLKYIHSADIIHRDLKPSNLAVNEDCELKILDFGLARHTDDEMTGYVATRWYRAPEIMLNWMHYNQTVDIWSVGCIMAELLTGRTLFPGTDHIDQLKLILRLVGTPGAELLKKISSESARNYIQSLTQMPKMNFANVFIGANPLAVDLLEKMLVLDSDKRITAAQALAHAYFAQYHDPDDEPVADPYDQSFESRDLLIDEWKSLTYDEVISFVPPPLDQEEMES

Compound	IC50 [1]	IC50 (TGF-beta receptor type-1)
C[C@H](Nc1nccc(-c2c(-c3ccc(F)cc3)ncn2Cc2cccc(C(N)=O)c2)n1)c1ccccc1	55.1 nM	> 1000 nM
N#Cc1cccc(Cn2cnc(-c3ccnc(N)n3)c2-c2ccc(F)cc2)c1	> 1000 nM	> 1000 nM
C[C@H](Nc1nccc(-c2ncn(Cc3cccc(C#N)c3)c2-c2ccc(F)cc2)n1)c1ccccc1	> 1000 nM	> 1000 nM
N#Cc1cccc(Cn2cnc(-c3ccnc(NC4CC4)n3)c2-c2ccc(F)cc2)c1	> 1000 nM	> 1000 nM
C[C@H](Nc1nccc(-c2c(-c3ccc(F)cc3)ncn2Cc2ccc(C(N)=O)cc2)n1)c1ccccc1	55.6 nM	> 1000 nM
N#Cc1cccc(Cn2cnc(-c3ccc(F)cc3)c2-c2ccnc(NC3CC3)n2)c1	62.6 nM	> 1000 nM
COc1nccc(-c2ncn(Cc3cccc(C#N)c3)c2-c2ccc(F)cc2)n1	> 1000 nM	> 1000 nM
C[C@H](Nc1nccc(-c2[nH]c(Cc3cccc(C(N)=O)c3)nc2-c2ccc(F)cc2)n1)c1ccccc1	78 nM	> 1000 nM
COc1nccc(-c2[nH]c(Cc3cccc(C#N)c3)nc2-c2ccc(F)cc2)n1	62.8 nM	> 1000 nM
N#Cc1cccc(Cn2cnc(-c3ccc(F)cc3)c2-c2ccnc(N)n2)c1	101 nM	> 1000 nM
COc1nccc(-c2ncn(Cc3ccc(C#N)cc3)c2-c2ccc(F)cc2)n1	> 1000 nM	> 1000 nM
C[C@H](Nc1nccc(-c2ncn(Cc3cccc(C(N)=O)c3)c2-c2ccc(F)cc2)n1)c1ccccc1	> 1000 nM	> 1000 nM
NC(=O)c1cccc(Cn2cnc(-c3ccnc(N)n3)c2-c2ccc(F)cc2)c1	> 1000 nM	> 1000 nM
COc1nccc(-c2c(-c3ccc(F)cc3)ncn2Cc2ccc(C(N)=O)cc2)n1	916 nM	> 1000 nM
NC(=O)c1cccc(Cn2cnc(-c3ccc(F)cc3)c2-c2ccnc(N)n2)c1	344 nM	> 1000 nM
COc1ccc(CNc2nccc(-c3[nH]c(Cc4cccc(C#N)c4)nc3-c3ccc(F)cc3)n2)cc1	148 nM	> 1000 nM
COc1nccc(-c2ncn(Cc3ccc(C(N)=O)cc3)c2-c2ccc(F)cc2)n1	> 1000 nM	> 1000 nM
Cc1cccc(-c2[nH]c(Cc3cccc(C(N)=O)c3)nc2-c2ccc3nccnc3c2)n1	4300 nM	

The next lines start with the values.

IC50 [1]	IC50 (TGF-beta receptor type-1)	Compound
> 1000 nM	> 1000 nM	COc1nccc(-c2ncn(Cc3cccc(C(N)=O)c3)c2-c2ccc(F)cc2)n1
54.4 nM	> 1000 nM	N#Cc1cccc(Cc2nc(-c3ccc(F)cc3)c(-c3ccnc(NC4CC4)n3)[nH]2)c1
27.6 nM	> 1000 nM	NC(=O)c1cccc(Cn2cnc(-c3ccc(F)cc3)c2-c2ccnc(NC3CC3)n2)c1
191 nM	> 1000 nM	COc1ccc(CNc2nccc(-c3c(-c4ccc(F)cc4)ncn3Cc3cccc(C#N)c3)n2)cc1
859 nM	> 1000 nM	COc1nccc(-c2c(-c3ccc(F)cc3)ncn2Cc2ccc(C#N)cc2)n1
> 1000 nM	> 1000 nM	NC(=O)c1cccc(Cn2cnc(-c3ccnc(NC4CC4)n3)c2-c2ccc(F)cc2)c1
> 1000 nM	> 1000 nM	C[C@H](Nc1nccc(-c2ncn(Cc3ccc(C#N)cc3)c2-c2ccc(F)cc2)n1)c1ccccc1
87.1 nM	> 1000 nM	C[C@H](Nc1nccc(-c2c(-c3ccc(F)cc3)ncn2Cc2ccc(C#N)cc2)n1)c1ccccc1
140 nM	> 1000 nM	C[C@H](Nc1nccc(-c2c(-c3ccc(F)cc3)ncn2Cc2cccc(C#N)c2)n1)c1ccccc1
260 nM	> 1000 nM	COc1nccc(-c2c(-c3ccc(F)cc3)ncn2Cc2cccc(C#N)c2)n1
48.5 nM	> 1000 nM	COc1nccc(-c2[nH]c(Cc3cccc(C(N)=O)c3)nc2-c2ccc(F)cc2)n1
28 nM	> 1000 nM	N#Cc1cccc(Cc2nc(-c3ccc(F)cc3)c(-c3ccnc(N)n3)[nH]2)c1
31 nM	> 1000 nM	NC(=O)c1cccc(Cc2nc(-c3ccc(F)cc3)c(-c3ccnc(NC4CC4)n3)[nH]2)c1
> 1000 nM	> 1000 nM	COc1ccc(CNc2nccc(-c3ncn(Cc4cccc(C#N)c4)c3-c3ccc(F)cc3)n2)cc1
822 nM		NC(=O)N(c1nc(-c2ccc(F)cc2)cs1)c1c(Cl)cccc1Cl
225 nM	> 1000 nM	COc1nccc(-c2c(-c3ccc(F)cc3)ncn2Cc2cccc(C(N)=O)c2)n1
> 1000 nM	> 1000 nM	C[C@H](Nc1nccc(-c2ncn(Cc3ccc(C(N)=O)cc3)c2-c2ccc(F)cc2)n1)c1ccccc1
95.4 nM	> 1000 nM	C[C@H](Nc1nccc(-c2[nH]c(Cc3cccc(C#N)c3)nc2-c2ccc(F)cc2)n1)c1ccccc1
